Data taken from patent publication US20070172529A1, “Herbal formulation for the treatment of piles” (COUNCIL OF SCIENTIFIC AND INDUSTRIAL RESEARCH, priority 2004, published 2007).
Marks after values point to notes of the source that are not given here.

Columns and labels:
interleukin-1 production = conditions: Chem. Pharm. Bull. 1992, 40,2041; cited from earlier work
[1] = system: λ carrageenin induced edema; test: λ carrageenin induced paw edema in rats; type: in vivo, rat
Protocol: Carrageenin induced paw edema: Rats were injected with 0.1 ml of 1% λ carrageenin (St.-Louis, Mo.) into the subplantar side of the left hind paw. The paw was marked with ink at the level of the lateral malleolus and dipped in perspex cell up to this mark. The paw volume was measured with an Ugo Basile Plethysmometer (No: 61402) (7140 Comerio-varese, Italy) immediately and 3 h after injecting the λ carrageenin suspension. […] Significant reductions in the paw volume compared to vehicle treated control animals were considered as anti-inflammatory response. Percentage inhibition of oedema was calculated as follows: % Inhibition=(1−VT/VC)×100
VT=Paw volume in drug treated rats, VC=Paw volume in control group of rats.

force-induced pain = test: Analgesy-meter force-induced pain in rats; type: in vivo, rat; conditions: mean ± SEM, six rats
Protocol: Analgesy-meter induced pain: The analgesic effect of the powder was tested in rat of either sex, using an Ugo Basile Analgesy meter (No. 32725) (21025 Comerio-[…], Italy). This method involves the application of force to the paw of the rat using the Analgesy-meter, which exerts a force that increases at a constant rate. The rat was gently placed between the plinth and plunger. The instrument was switched on and a constant motor rate was used to drive the plunger on to the paw of the rat. When the rat struggles, the instrument is switched off and the force at which the animal felt pain was read on a scale calibrated in grams ×10 by a pointers. The pre-treatment and the after treatment weight causing pain was determined for each rat. […]

Bacillus Substilis = conditions: against Bacillus Substilis; cited from earlier work

For Pongapipnone A, the “Inhibition of interleukin-1 production” value (interleukin-1 production) is given as “inhibited interleukin-1 production”.
With COc1ccc2c(c1)c(CC(=O)O)c(C)n2C(=O)c1ccc(Cl)cc1 [Indomethacin] the “Paw volume (ml) at 3h λ carrageenin” value ([1]; 100 mg/kg, mean ± SEM, six rats) was 0.15 ± 0.02 mL and the inhibition at 100 mg/kg ([1]; Rattus norvegicus, 3 h after λ carrageenin, vs control) was 84.7%.
For CC(C)Cc1ccc(C(C)C(=O)O)cc1 (stereo not drawn) [Ibuprofen], the “Weight causing pain (g) After Administration” value (force-induced pain; 100 mg/kg) was 161.1 ± 7.9^b g and the “Weight causing pain (g) Before Administration” value (force-induced pain; pre-treatment value of 100 mg/kg group) was 84.7 ± 5.7 g.
In the case of C[C@@H]1O[C@@H](Oc2ccc(CN=C=S)cc2)[C@H](O)[C@H](O)[C@H]1O [4-(α-L Rhamnosyloxy benzylisothiocynate], the Antibacterial activity (Bacillus Substilis) is listed as “exhibited antibacterial activity”.
